From ChEMBL document CHEMBL1201862, “PubChem BioAssay data set” (2004)
Activity calls are given as the source filed them.

What was measured:
Cytochrome P450 1A2 = biological target: T1, Cytochrome P450 1A2 (Homo sapiens, UniProt P05177);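 note: PubChem cytochrome P450 panel assay, CYP1A2 panel member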
T1 sequence (P05177 whole entry): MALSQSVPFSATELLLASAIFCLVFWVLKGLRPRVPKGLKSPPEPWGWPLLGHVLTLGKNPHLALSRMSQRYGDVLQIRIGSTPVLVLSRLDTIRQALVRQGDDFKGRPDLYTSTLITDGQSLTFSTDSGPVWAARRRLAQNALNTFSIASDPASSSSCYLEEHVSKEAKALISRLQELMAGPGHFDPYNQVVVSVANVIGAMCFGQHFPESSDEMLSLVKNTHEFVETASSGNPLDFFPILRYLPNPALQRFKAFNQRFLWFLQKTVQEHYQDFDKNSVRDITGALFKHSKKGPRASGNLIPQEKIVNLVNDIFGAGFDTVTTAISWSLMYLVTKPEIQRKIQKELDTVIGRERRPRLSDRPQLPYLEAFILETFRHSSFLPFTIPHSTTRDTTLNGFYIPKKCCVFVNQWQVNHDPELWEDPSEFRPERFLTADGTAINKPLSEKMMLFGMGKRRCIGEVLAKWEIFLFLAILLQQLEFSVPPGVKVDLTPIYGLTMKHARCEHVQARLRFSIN

[1] = Luminescence Cell-Based Dose Confirmation HTS to Identify Inhibitors of Platelet Dense Granule Release. [Related pubchem assays: 1663 (Primary HTS), 1678 (Summary of Project)]; assay type: functional
[2] = biological target: Luciferin 4-monooxygenase (Photinus pyralis, UniProt P08659); assay: inhibition of purified Photinus pyralis luciferase – biochemical, luminescence, dose response (AID 1891)
Chain of Luciferin 4-monooxygenase (P08659 whole entry): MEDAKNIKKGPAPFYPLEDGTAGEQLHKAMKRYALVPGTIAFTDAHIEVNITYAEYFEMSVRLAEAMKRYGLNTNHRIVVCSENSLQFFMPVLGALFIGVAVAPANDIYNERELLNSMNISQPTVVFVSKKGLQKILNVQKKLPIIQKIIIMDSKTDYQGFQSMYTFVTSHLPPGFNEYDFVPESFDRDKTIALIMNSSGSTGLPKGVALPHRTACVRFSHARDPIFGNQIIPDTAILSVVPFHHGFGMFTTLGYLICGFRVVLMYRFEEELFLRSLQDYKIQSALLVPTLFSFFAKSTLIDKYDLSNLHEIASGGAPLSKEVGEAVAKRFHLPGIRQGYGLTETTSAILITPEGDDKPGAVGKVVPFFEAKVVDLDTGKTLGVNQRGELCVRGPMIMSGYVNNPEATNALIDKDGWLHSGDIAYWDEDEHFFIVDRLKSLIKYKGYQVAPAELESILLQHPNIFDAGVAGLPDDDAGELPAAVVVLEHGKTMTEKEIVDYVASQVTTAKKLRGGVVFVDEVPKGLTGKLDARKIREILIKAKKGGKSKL

Cytochrome P450 2C19 = Cytochrome P450 2C19 (Homo sapiens, UniProt P33261); assay: Cytochrome panel assay with activity outcomes. Panel member name: p450-cyp2c19 Compounds with AC50 equal or less than 10 uM are considered active; assay type: functional
Chain of Cytochrome P450 2C19 (P33261 whole entry, the tested form may be a part): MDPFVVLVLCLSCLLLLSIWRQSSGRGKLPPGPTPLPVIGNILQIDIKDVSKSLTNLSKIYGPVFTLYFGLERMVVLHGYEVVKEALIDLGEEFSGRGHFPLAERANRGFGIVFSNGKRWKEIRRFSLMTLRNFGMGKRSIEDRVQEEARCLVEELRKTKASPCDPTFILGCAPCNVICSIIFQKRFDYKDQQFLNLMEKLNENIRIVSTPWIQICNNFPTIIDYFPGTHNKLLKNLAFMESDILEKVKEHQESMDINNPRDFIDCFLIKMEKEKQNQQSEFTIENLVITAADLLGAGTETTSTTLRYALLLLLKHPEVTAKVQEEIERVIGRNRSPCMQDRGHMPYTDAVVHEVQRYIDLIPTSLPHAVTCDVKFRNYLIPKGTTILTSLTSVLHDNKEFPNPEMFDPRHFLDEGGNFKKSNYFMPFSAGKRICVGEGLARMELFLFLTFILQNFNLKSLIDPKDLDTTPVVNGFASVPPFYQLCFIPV

[3] = HIV-1 AD8 envelope cell-cell fusion blockers – cherry-pick, dose response (AID 652062); assay type: functional, cell-based;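 note: luciferase signal from cell-cell fusion driven by HIV-1 clade B AD8 Env; potency is for inhibitors of fusion seen as a drop in luminescence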
[4] = viability of PTEN-deleted HCT116 cells – cell-based, HCT116 PTEN knockout, dose response (AID 1047); assay type: functional;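 note: HCT116 colon tumor cells with PTEN knocked out; cells exposed to compound for 60 hours before readout; potency for loss of cell viability measured by luminescence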
[5] = viability of HCT116 lacking mutant beta-catenin – cell-based, human colon tumor, dose response (AID 1045); assay type: functional;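 note: HCT116 colon tumor cells with beta catenin knocked out; cells exposed to compound for 60 hours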
Protein skinhead-1 = biological target: T2, Protein skinhead-1 (Caenorhabditis elegans, UniProt P34707); assay type: functional
T2 sequence (P34707 whole entry): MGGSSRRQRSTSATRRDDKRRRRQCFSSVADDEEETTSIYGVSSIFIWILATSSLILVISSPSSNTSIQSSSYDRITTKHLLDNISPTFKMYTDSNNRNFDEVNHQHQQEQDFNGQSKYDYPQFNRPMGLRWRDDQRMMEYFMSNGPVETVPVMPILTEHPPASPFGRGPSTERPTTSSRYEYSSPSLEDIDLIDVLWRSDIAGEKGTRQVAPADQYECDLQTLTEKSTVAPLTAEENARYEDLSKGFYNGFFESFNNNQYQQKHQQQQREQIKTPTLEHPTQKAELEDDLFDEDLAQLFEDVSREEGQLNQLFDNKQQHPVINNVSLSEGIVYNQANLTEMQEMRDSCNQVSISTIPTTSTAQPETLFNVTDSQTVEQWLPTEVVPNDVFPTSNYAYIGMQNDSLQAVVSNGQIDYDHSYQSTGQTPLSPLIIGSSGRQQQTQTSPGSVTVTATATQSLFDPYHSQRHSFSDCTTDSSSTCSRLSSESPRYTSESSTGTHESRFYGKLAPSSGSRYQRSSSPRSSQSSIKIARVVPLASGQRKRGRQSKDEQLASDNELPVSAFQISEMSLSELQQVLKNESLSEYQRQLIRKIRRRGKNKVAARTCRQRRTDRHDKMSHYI

cells = assay type: functional
[6] = biological target: T3, Heat shock factor protein 1 (Mus musculus, UniProt P38532); assay: enhancement of HSF1-driven luciferase signal – cell-based, NIH3T3, luminescence, dose retest, confirmation (AID 435004); assay type: functional;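 note: stress induced by proteasome inhibitor MG132 added 30 min after compound; luciferase reporter driven by HSF1 response element in NIH3T3 cells; actives raise luminescence as potentiators of the MG132 stress response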
T3 sequence (P38532 whole entry): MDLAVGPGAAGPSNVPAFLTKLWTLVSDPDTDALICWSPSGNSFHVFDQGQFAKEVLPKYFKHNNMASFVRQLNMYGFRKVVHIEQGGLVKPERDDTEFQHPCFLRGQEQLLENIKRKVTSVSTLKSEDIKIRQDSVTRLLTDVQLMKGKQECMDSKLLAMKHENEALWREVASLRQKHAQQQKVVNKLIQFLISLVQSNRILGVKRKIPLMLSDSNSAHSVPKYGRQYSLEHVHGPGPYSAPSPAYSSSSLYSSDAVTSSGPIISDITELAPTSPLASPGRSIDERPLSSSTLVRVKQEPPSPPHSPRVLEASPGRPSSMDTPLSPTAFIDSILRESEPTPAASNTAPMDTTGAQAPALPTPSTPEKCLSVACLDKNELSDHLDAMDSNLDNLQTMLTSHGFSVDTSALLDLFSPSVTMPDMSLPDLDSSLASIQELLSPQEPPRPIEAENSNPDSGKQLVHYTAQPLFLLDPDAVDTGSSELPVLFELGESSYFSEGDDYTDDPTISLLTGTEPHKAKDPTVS

H4 = assay: Luminescence Cell-Based Dose Response HTS to Identify Activators of 5'UTR Stem-Loop Driven Prion Protein mRNA Translation in H4 Neuroglioblastoma Cells. [Related pubchem assays: 1829 (Project Summary), 1814 (Primary HTS)]; assay type: functional; details: Homo sapiens
[7] = Luminescence Cell-Based Dose Response HTS to Identify Activators of Luciferase Translation or Activity in H4 […] Cells. [Related pubchem assays: 1829 (Project Summary), 1814 (Primary HTS)]; assay type: functional
[8] = Luminescence Cell-Based Dose Confirmation HTS to Identify Activators of 5'UTR Stem-Loop Driven Alpha-Synuclein mRNA Translation in H4 Neuroglioblastoma Cells. [Related pubchem assays: 1829 (Project Summary), 1814 (Primary HTS)]; assay type: functional
Cytochrome P450 3A4 = Cytochrome P450 3A4 (Homo sapiens, UniProt P08684);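 note: CYP3A4 tested as one member of a cytochrome P450 panel screen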
Chain of Cytochrome P450 3A4 (P08684 whole entry): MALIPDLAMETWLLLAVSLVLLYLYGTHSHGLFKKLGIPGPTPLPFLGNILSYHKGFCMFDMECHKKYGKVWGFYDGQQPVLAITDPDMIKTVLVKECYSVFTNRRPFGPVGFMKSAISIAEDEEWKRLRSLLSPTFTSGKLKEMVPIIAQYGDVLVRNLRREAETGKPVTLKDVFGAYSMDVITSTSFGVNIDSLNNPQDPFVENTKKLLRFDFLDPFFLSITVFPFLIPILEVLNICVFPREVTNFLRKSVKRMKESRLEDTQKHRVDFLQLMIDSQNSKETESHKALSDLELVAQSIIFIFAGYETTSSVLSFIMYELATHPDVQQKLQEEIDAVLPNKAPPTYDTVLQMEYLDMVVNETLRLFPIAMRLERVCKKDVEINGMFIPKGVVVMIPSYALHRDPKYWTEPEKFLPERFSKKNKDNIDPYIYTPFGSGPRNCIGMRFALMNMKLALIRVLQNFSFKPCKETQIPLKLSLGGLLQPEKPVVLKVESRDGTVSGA

Cytochrome P450 2D6 = Cytochrome P450 2D6 (Homo sapiens, UniProt P10635);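 note: CYP2D6 member of a cytochrome P450 panel assay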
Chain of Cytochrome P450 2D6 (P10635 whole entry): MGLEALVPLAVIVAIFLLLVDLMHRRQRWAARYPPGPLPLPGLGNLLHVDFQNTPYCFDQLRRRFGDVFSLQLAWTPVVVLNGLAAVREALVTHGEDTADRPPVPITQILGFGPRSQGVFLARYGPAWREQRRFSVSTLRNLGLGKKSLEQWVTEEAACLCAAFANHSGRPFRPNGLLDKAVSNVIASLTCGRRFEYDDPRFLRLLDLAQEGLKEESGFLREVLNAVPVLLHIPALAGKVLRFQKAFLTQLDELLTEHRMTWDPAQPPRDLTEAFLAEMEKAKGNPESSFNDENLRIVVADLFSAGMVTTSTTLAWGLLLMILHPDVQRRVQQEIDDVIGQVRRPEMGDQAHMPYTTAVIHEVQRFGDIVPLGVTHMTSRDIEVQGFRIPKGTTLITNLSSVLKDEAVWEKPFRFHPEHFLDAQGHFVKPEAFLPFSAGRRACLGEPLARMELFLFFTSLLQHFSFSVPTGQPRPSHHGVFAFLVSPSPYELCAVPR

Cytochrome P450 2C9 = Cytochrome P450 2C9 (Homo sapiens, UniProt P11712)
Chain of Cytochrome P450 2C9 (P11712 whole entry): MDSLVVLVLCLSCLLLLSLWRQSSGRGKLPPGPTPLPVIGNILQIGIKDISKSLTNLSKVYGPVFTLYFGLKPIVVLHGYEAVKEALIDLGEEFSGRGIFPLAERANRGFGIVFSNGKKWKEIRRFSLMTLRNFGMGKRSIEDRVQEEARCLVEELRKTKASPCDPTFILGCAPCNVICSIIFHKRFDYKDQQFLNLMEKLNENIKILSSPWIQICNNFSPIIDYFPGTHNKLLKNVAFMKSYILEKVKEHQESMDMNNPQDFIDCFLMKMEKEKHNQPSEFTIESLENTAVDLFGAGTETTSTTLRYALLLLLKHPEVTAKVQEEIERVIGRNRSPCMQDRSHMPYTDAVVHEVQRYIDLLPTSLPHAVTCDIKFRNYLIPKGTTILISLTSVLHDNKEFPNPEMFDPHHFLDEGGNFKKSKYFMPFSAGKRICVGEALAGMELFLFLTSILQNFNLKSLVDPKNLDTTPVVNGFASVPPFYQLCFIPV

[9] = alpha-synuclein stem-loop luciferase translation blockers – H4 neuroglioma cells, luminescence, confirmation (AID 1988); assay type: functional, cell-based
[10] = Luminescence Cell-Based Dose Response HTS to Identify Inhibitors of 5'UTR Stem-Loop Driven Prion Protein mRNA Translation in H4 Neuroglioblastoma Cells. [Related pubchem assays: 1827 (Project Summary), 1813 (Primary HTS)]; assay type: functional
[11] = luciferase reporter signal suppression in cells – H4 neuroglioma cells, luminescence, dose response (AID 1990); assay type: functional, cell-based
[12] = biological target: T4, Polyadenylate-binding protein 1 (Homo sapiens, UniProt P11940); assay: MLLE binding blockers, Cy5 peptide tracer – biochemical, fluorescence polarization, Cy5-PAM2 peptide, secondary, miRNA deadenylation inhibitor project, dose response (AID 602260); assay type: functional; details: read-out: IC50_Mean
T4 sequence (P11940 whole entry, the tested form may be a part): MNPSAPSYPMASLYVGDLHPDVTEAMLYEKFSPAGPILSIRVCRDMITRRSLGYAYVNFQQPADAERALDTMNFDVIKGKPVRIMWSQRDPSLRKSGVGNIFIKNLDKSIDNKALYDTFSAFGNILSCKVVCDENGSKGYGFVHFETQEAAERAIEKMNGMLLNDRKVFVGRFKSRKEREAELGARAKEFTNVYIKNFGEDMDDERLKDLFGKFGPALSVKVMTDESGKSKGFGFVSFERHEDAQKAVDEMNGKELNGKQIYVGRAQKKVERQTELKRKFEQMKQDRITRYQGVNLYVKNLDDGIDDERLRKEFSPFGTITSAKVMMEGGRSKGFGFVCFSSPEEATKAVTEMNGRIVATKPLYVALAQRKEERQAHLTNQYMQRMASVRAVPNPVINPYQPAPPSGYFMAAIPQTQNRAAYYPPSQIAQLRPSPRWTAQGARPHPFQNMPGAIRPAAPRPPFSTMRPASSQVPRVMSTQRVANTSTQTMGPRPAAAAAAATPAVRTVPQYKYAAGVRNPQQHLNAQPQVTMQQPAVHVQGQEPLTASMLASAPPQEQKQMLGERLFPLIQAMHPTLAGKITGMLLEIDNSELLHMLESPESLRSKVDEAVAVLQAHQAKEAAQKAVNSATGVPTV

[13] = biological target: T4, Polyadenylate-binding protein 1; assay: MLLE domain peptide-binding blockers, IC50 – biochemical, fluorescence polarization, FITC-PAM2 peptide, dose response (AID 602259); assay type: functional; details: read-out: IC50_Mean

O=C(CCNC(=O)Cn1cnc2ccccc2c1=O)NCC1COc2ccccc2O1 (stereo not given)
AC50 (Cytochrome P450 1A2): 0.01 µM (inconclusive)

CSc1cccc(NC(=O)c2cc(S(=O)(=O)N3CCCC3)cn2C)c1
EC50 [1]: > 112 µM (not active)
EC50 [2]: > 112 µM (not active)

O=C(NCC1CCCO1)c1ccc(NC(=O)c2cccc(Cl)c2)cc1 (stereo not given)
EC50 [1]: > 112 µM (not active)
EC50 [2]: > 112 µM (not active)

COC(=O)[C@@]1(Cc2ccc(F)cc2)[C@H]2c3cc(C(=O)N(C)C)n(CCc4c[nH]c5ccc(OC)cc45)c3C[C@H]2CN1C(=O)c1ccccc1
AC50 (Cytochrome P450 1A2): 12.6 µM (inconclusive)
AC50 (Cytochrome P450 2C19; read-out: AC50): 39.8 µM (inconclusive)

COC(=O)[C@H](C)[C@H]1C[C@]1(C)[C@H](NC(=O)OCc1ccccc1)c1ccccc1
AC50 (Cytochrome P450 1A2): 15.8 µM (inconclusive)

CCCSc1cc(NCCOC(C)=O)c([N+](=O)[O-])c2nonc12
EC50 [1]: > 112 µM (not active)
EC50 [2]: > 112 µM (not active)

COc1cccc(C(=O)N/N=C/c2c[nH]nc2-c2ccc(OC)cc2OC)c1
EC50 [1]: > 112 µM (not active)
EC50 [2]: > 112 µM (not active)

C[C@@H]1CN([C@@H](C)CO)C(=O)c2cc(C3=CCCC3)cnc2O[C@@H]1CN(C)Cc1ccc(C(=O)O)cc1
AC50 [3]: 10.9 µM (active)

CCOC(=O)c1ccc(NC(=O)c2cccc(S(=O)(=O)N3CCOCC3)c2)cc1
EC50 [4]: 30.4 µM (active)
EC50 [5]: 22 µM (active)

O=C(CN1CCN(S(=O)(=O)c2ccc(Br)cc2)CC1)Nc1ccc2c(c1)OCO2
IC50 (Protein skinhead-1): > 100 µM (inactive)

SC1=Nc2ccc(Cl)cc2C(c2ccccc2)=NC1
IC50 (cells): > 50 µM (active)
EC50 [6]: > 260 µM (inactive)

O=C(Nc1ccccc1F)C1CCCC1
IC50 (Protein skinhead-1): > 100 µM (inactive)

CCC(c1nnnn1CC1CCCO1)N(CCN1CCOCC1)Cc1cc2cc(C)ccc2nc1O (stereo not given)
AC50 (Cytochrome P450 1A2): 25.1 µM (inconclusive)

O=C(Nc1ccc(Cl)cc1)c1cnc(-c2ccccc2)nc1-c1ccccc1
EC50 [4]: 7.19 µM (active)
EC50 [5]: 6.45 µM (active)
AC50 (Cytochrome P450 2C19; read-out: AC50): 1 µM (inconclusive)

CCc1ccc2nc(O)c(CN(Cc3nnnn3C3CCCC3)C3CCCCC3)cc2c1
EC50 (H4): > 120 µM (not active)
EC50 [7]: > 120 µM (not active)
EC50 [4]: 18.8 µM (active)
EC50 [5]: 19.7 µM (active)
EC50 [8]: > 120 µM (not active)

FC(F)(F)c1cc(-c2ccccc2)nc(NC2CCCC2)n1
IC50 (Protein skinhead-1): > 100 µM (inactive)

O=C1[C@@H]2Cc3c([nH]c4ccccc34)[C@@H](c3ccccc3)N2C(=O)[C@@H]2Cc3c([nH]c4ccccc34)[C@@H](c3ccccc3)N12
EC50 [4]: 9.58 µM (active)
EC50 [5]: 9.96 µM (active)

COc1cccc(Cn2c(=O)c(-c3cn(C)c4ccccc34)nc3cnc(N4CCNCC4)nc32)c1
AC50 (Cytochrome P450 1A2): 15.8 µM (inconclusive)
AC50 (Cytochrome P450 3A4): 15.8 µM (inconclusive)
AC50 (Cytochrome P450 2D6): 39.8 µM (inconclusive)

OCC/N=C1\CCCc2c1[nH]c1ccc(Br)cc21
AC50 (Cytochrome P450 2C9): 7.08 µM (inconclusive)
EC50 [9]: 8.41 µM (active)
AC50 (Cytochrome P450 1A2): 0.251 µM (inconclusive)
EC50 [10]: 48.8 µM (active)
EC50 [11]: < 0.1 µM (active)
AC50 (Cytochrome P450 2D6): 1 µM (inconclusive)

c1ccc(-c2nc3c4ccccc4ccn3c2CN2CCCCC2)cc1
EC50 [1]: > 112 µM (not active)
EC50 [2]: 14.8 µM (active)

CN(C)C(=O)c1ccc(-c2nc(NCc3cccnc3)c3ccccc3n2)cc1
AC50 (Cytochrome P450 1A2): 10 µM (inconclusive)
AC50 (Cytochrome P450 2D6): 39.8 µM (inconclusive)

COC(=O)c1ccc(NC(=O)c2ccc(CN3CCOCC3)cc2)cc1
AC50 [3]: 43.4 µM (active)

O=C(Cc1cccc2ccccc12)NC(NC(=S)Nc1ccccc1Cl)C(Cl)(Cl)Cl (stereo not given)
IC50 [12]: > 66 µM (inactive)
EC50 [4]: 15.2 µM (active)
EC50 [5]: 16.7 µM (active)
IC50 [13]: > 66 µM (inactive)

COc1ccc2[nH]cc(CCNc3ncnc4ccc(-c5ccccc5CN(C)C)cc34)c2c1
AC50 (Cytochrome P450 1A2): 31.6 µM (inconclusive)

Cc1c(C(=O)N2CCCCCC2)nnn1-c1nonc1N
AC50 (Cytochrome P450 2C9): 14.1 µM (inconclusive)
AC50 (Cytochrome P450 1A2): 15.8 µM (inconclusive)
AC50 (Cytochrome P450 2D6): 17.8 µM (inconclusive)

CC#CCCCC(=O)Nc1ccc(C(=O)O)cc1
AC50 (Cytochrome P450 2C9): 39.8 µM (inconclusive)
AC50 (Cytochrome P450 1A2): 28.2 µM (inconclusive)
AC50 (Cytochrome P450 2C19): inconclusive

CC1(C)CCC(C)(C)c2cc(C(=O)Nc3ccc(C(=O)O)cc3)ccc21
AC50 (Cytochrome P450 2C9): 15.8 µM (inconclusive)
AC50 (Cytochrome P450 1A2): 31.6 µM (inconclusive)
AC50 (Cytochrome P450 2C19; read-out: AC50): 31.6 µM (inconclusive)

Clc1ccc2oc(-c3ccccn3)nc2c1
IC50 (Protein skinhead-1): 35.9 µM (active)

C(=C1c2ccccc2-c2ccccc21)c1ccccn1
IC50 (Protein skinhead-1): 59.4 µM (inactive)

CC(=O)NC(CCS(C)(=O)=O)C(=O)Nc1cc(C)on1 (stereo not given)
EC50 [1]: > 112 µM (not active)
EC50 [2]: > 112 µM (not active)

CCOC(=O)C1=C(C)N(c2ccc(C)cc2)C(=O)/C1=C\c1ccc(O)c(OC)c1
EC50 [1]: > 112 µM (not active)
EC50 [2]: > 112 µM (not active)
